Data taken from patent publication US7226924B2, “Substituted 3,4-dihydro-pyrimido[1,2a]pyrimidines and 3,4-dihydro-pyrazino[1,2a]pyrimidines, and methods for their preparation and use” (priority 2000, dated 2007).

Tests used:
μ-opiate receptor = μ-opiate receptor (Homo sapiens, UniProt P35372); assay: μ-opiate receptor binding; settings: read-out: Ki Value of the μ-opiate Receptor Bond
Text: (§1) Compounds according to the invention were investigated with respect to their pharmacological properties using methods described by J. P. Devlin in “High throughput screening—the discovery of bioactive substances,” Marcel Dekker, New York, 1997, pages 275 to 453.

NMDA/MK801-binding site = NMDA/MK801-binding site inhibition; set-up: dose or concentration left out as unconfirmed
Text: as §1

Chain of μ-opiate receptor (P35372 whole entry, species assumed): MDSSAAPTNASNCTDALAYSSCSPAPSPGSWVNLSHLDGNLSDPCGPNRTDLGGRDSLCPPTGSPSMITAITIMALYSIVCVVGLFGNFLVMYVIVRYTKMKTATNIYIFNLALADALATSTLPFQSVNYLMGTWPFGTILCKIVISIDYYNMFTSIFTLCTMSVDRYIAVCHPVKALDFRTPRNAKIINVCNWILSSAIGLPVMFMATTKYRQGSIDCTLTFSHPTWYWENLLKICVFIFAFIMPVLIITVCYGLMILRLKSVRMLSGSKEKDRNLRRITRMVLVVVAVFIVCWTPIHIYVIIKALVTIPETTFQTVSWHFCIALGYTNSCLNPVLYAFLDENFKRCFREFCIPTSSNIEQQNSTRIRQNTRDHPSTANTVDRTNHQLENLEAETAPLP

Row | SMILES | Ki (μ-opiate receptor) | % inhibition of NMDA/MK801-binding site (NMDA/MK801-binding site)
1 | BrC1=CN2C(=NC(c3ccccn3)CC2Sc2ccccc2)N=C1 (centres unmarked) [Example 53, 7-bromo-4-phenylsulphanyl-2-pyridin-2-yl-3,4--dihydro-2H-pyrimido[1,2a]pyrimidine] | 2500 nM | 44%
2 | N#CC1=NC(c2ccccc2)=CN2C1=NC(c1ccccn1)CC2Sc1ccccc1 (centres unmarked) [Example 52, 7-phenyl-4-phenylsulphanyl-2-pyridin-2-yl-3,4--dihydro-2H-pyrazino[1,2a]pyrimidine-9--carbonitrile] | 1400 nM | 47%
3 | NC(=O)C1=NC(Cl)=C(N)N2C1=NC(c1ccccn1)CC2Sc1ccccc1 (centres unmarked) [Example 51, 6-Amino-7-chlor-4-phenylsulphanyl-2-pyridin-2--yl-3,4-dihydro-2H-pyrazino[1,2a]pyrimidin-9--carboxylic acid amide] | 1400 nM | 40%
4 | OC1=CC(O)=NC2=NC(c3ccccn3)C3C4C=CC(C4)C3N12 (centres unmarked) [Example 61, 5,8-methano-9-pyridin-2-yl-5,8,84,9-tetrahydro--4bH-1,4a,10-triaza-phenanthrene-2,4-diol] | – | 40%
5 | BrC1=CN2C(=NC(c3ccccn3)C3CCC=CC32)N=C1 (centres unmarked) [Example 62, 3-bromo-9-pyridin-2-yl-7,8,84,9-tetrahydro--4bH-1,44,10-triaza-phenanthrene] | – | 40%
